Results: article PMC5219908, “Expression, purification and kinetic characterization of recombinant benzoate dioxygenase from Rhodococcus ruber UKMP-5M” (Molecular Biology Research Communications, 2016)

Tested on: T1, benzoate dioxygenase
T1 construct: gene benA; benA amplicon 642 bp (about 213 residues, much shorter than a usual BenA of about 450), His-tag from pET28b, E. coli BL21(DE3), ion exchange; primers encode start MELDRGPAG and end RDVPVYPF; no reductase or beta subunit added
Assay: NADH oxidation at […] nm, Lineweaver-Burk
Type: biochemical, Rhodococcus ruber
Details: 25 °C, 3 min; reduced nicotinamide cofactor (NADH; reagent list prints the phosphate form), FeSO4; substrate range printed as 0.1-1.2 mM, far above the Km; pH of kinetic assay not stated

Km: 5.58 µM
Structure (SMILES): O=C(O)c1ccccc1 [sodium benzoate]
